Experimental data published in patent US8865697B2, “Crystalline (6R,7R)-7-{2-(5-amino-[1,2,4] thiadiazol-3-yl)-2-[(Z)-trityloxyimino]-acetylamino}-3-[(R)-1′-tert-butoxycarbonyl-2-oxo-[1,3′]bipyrrolidinyl-(3E)-ylidenemethyl]-8-oxo-5-thia-1-aza-bicyclo[4.2.0]oct-2-ene-2-carboxylic acid benzhydryl ester; its manufacture and use” (Basilea Pharmaceutica AG, priority 2008, dated 2014).

Assay: Solubility in methylene chloride
Type: physicochemical
Settings: in methylene chloride at about 25° C.
Procedure: In methylene chloride, on the other hand, the DMSO solvate according to the present invention is readily soluble at temperatures in the range as indicated in the preceding paragraph (solubility about 70 g/l at about 25° C.). […] Therefore dissolving the DMSO solvate methylene chloride results in that the compound of formula (I) precipitates from this solution. This precipitate of the compound of formula (I) is generally again of greater purity than the DMSO solvate dissolved, and of such a particle size, that it can very fast be filtered or centrifuged off from the solvent. Furthermore, the precipitate of compound of formula (I) is generally in substantially crystalline form when precipitated from methylene chloride. More particularly, the precipitate comprises the compound of formula (I) at least partially in form of single-crystals.

| Compound | solubility |
| --- | --- |
| CC(C)(C)OC(=O)N1CC[C@@H](N2CC/C(=C\C3=C(C(=O)OC(c4ccccc4)c4ccccc4)N4C(=O)[C@@H](NC(=O)/C(=N\OC(c5ccccc5)(c5ccccc5)c5ccccc5)c5nsc(N)n5)[C@H]4SC3)C2=O)C1 [compound of formula (I), (6R,7R)-7-{2-(5-Amino-[1,2,4]thiadiazol-3-yl)-2-[(Z)-trityloxyimino]-acetylamino}-3-[(R)-1′-tert-butoxycarbonyl-2-oxo-[1,3′]bipyrrolidinyl-3E-ylidenemethyl]-8-oxo-5-thia-1-aza-bicyclo[4.2.0]oct-2-ene-2-carboxylic acid benzhydryl ester] | about 8 g/l |
| CC(C)(C)OC(=O)N1CC[C@@H](N2CC/C(=C\C3=C(C(=O)OC(c4ccccc4)c4ccccc4)N4C(=O)[C@@H](NC(=O)/C(=N\OC(c5ccccc5)(c5ccccc5)c5ccccc5)c5nsc(N)n5)[C@H]4SC3)C2=O)C1 [DMSO solvate] | about 70 g/l |
